Reference: patent US9328122B2, “7-substituted Hanfangichin B derivative, and preparation method and use thereof” (HANGZHOU BENSHENG PHARMACEUTICAL CO., LTD., priority 2012, dated 2016)
Converted amounts (≈) assume the structure as drawn. Where a name gives a salt, the structure may show the parent alone.

What was measured:
[1] = tested on: Hep G2 transplanted tumor; experiment: Transplanted tumor of liver cancer in nude mice; details: BS-FC-308 35 mg/kg/time, erlotinib hydrochloride 20 mg/kg/time
Experimental: Liver cancer cell lines: Hep G2 (human liver cancer cell line);
Animal: BALBc nude mice (immunodeficient mice), 8 weeks, female, purchased from Shanghai Laboratory Animal Center of Chinese Academy of Sciences, China.
Under sterile conditions, the Hep G2 cells in the logarithmic growth phase were respectively collected and injected subcutaneously in an amount of 2.3×10^7/0.2 mL/nude mice (cell viability >90%) into the left subaxillary of the nude mice, thus establishing a transplanted tumor model of liver cancer in nude mice. The mice were administered from the second day after inoculation. The experimental group was intragastrically administered with the experimentally designed amount, the negative control group was intragastrically administered with sterile water, and the positive control group was intragastrically administered with erlotinib hydrochloride. Each mouse was intragastrically administered in 0.4 ml each time and 3 times a day, at 8:00, 14:00 and 20:00, with 6-hour intervals. The administrations were successive for 10 days. The day before administration was deemed as Day 0 and the weight and tumor size of the mice were determined every 5 days to produce a dynamic plot on weight and tumor growth (the experimental results are presented as mean±SD). On Day 28, the mice were sacrificed and the tumors were taken out and weighed. The tumor inhibition rate (%) after the effect of the medicament was calculated based on a tumor inhibition rate of the control group being zero.
The experimental data for each group were analyzed by using the One-way ANOVA method in the SPSS 19.0 statistical software and were compared with the control group for significance of difference.

[2] = tested on: K562/ADR (K562adr, drug-resistant chronic myeloid leukemia) cells; experiment: MTT cell growth inhibition, leukemia cells; assay type: cell-based; details: Homo sapiens, K562/Adr, 72 h
Source text: (§1) Leukemia cell lines: leukemia cell lines: K562adr (drug-resistant, chronic myeloid leukemia, CML), NB4 (acute promyelocytic leukemia, AML), Kasumi-1 (acute myeloid leukemia M2 type, AML-M2), Jurkat (acute lymphoblastic leukemia, ALL), all of which were donated by Cancer Research Institute of Zhejiang University, China; and H9 (acute lymphoblastic leukemia, ALL), which was purchased from China Center for Type Culture Collection.
(§2) Reagents: The standard sample of fangchinoline (FAN) was purchased from Ci Yuan Biotechnology Co., Ltd., Shaanxi, China; and the 7-substituted fangchinoline derivatives according to the present invention.
(§3) 6000 well-growing leukemia cells were obtained and inoculated into wells of a 96-well cell culture plate. The culture medium was a RPMI-1640 cell culture medium containing 10% fetal bovine serum. After adding the 7-substituted fangchinoline derivatives of different concentrations the next day and mixing uniformly, the plate was placed in a carbon dioxide cell incubator (5% CO2) at 37° C. and incubating for 72 hours. Then the viable cell concentration was determined by the MTT method.

[3] = tested on: NB4 (acute promyelocytic leukemia) cells; experiment: MTT cell growth inhibition, leukemia cells; assay type: cell-based; details: Homo sapiens, 72 h
Source text: as §1, §2, §3

[4] = tested on: H9 (acute lymphoblastic leukemia) cells; experiment: MTT cell growth inhibition, leukemia cells; assay type: cell-based, human; details: Homo sapiens, 72 h
Source text: as §1, §2, §3

[5] = tested on: Jurkat (acute lymphoblastic leukemia) cells; experiment: MTT cell growth inhibition, leukemia cells; assay type: cell-based, human; details: Homo sapiens, Jurkat, 72 h
Source text: as §1, §2, §3

[6] = tested on: Kasumi-1 (acute myeloid leukemia M2 type) cells; experiment: MTT cell growth inhibition, leukemia cells; assay type: cell-based, human; details: Homo sapiens, Kasumi 1, 72 h
Source text: as §1, §2, §3

[7] = tested on: RPMI 8226 (multiple myeloma) cells; experiment: MTT cell growth inhibition, multiple myeloma cells; assay type: cell-based, human; details: Homo sapiens, RPMI-8226, 72 h
Experimental: Myeloma cell lines: RPMI8226 (multiple myeloma), purchased from Fuxiang Bio-tech Co. Ltd., Shanghai, China.
as §3, with “well-growing” for “well-growing leukemia”, “incubated” for “incubating”

[8] = tested on: CNE (nasopharyngeal carcinoma) cells; experiment: MTT cell growth inhibition, solid tumor cells; assay type: cell-based, human; details: Homo sapiens, 72 h
Source text: (§4) Hep-2 (laryngeal carcinoma), A549 (human lung cancer), CaES-17 (esophageal cancer cell), PC-3 (prostate cancer), CNE (nasopharyngeal carcinoma cell) and SK-OV-3 (ovarian cancer cell), all of which were purchased from China Center For Type Culture Collection; RKO (human colon adenocarcinoma cell), MGC-803 (human gastric cancer cell), MG-63 (osteosarcoma), and U87-MG (malignant glioma cell), all of which were purchased from Fuxiang Bio-tech Co. Ltd., Shanghai, China; PANC-1 (pancreatic cancer), Becap37 (human breast cancer cell), Hela (human cervical cancer cell) and Hep G2 (human liver cancer cell), all of which were donated by Cancer Research Institute of Zhejiang University, China.
as §3, with “human solid tumor” for “leukemia”, “DMEM High Glucose” for “a RPMI-1640”, “serum. The plate was placed in a carbon dioxide cell incubator (5% CO2) at 37° C. and incubated for 24 hours.” for “serum.”, “added with” for “adding the”, “concentration” for “concentrations the next day”, “incubated” for “incubating”

[9] = tested on: CaEs-17 (esophageal cancer) cells; experiment: MTT cell growth inhibition, solid tumor cells; assay type: cell-based, human; details: Homo sapiens, CaEs17, 72 h
Source text: as §4
as §3, with “human solid tumor” for “leukemia”, “DMEM High Glucose” for “a RPMI-1640”, “serum. The plate was placed in a carbon dioxide cell incubator (5% CO2) at 37° C. and incubated for 24 hours.” for “serum.”, “added with” for “adding the”, “concentration” for “concentrations the next day”, “incubated” for “incubating”

[10] = tested on: PANC-1 (pancreatic cancer) cells; experiment: MTT cell growth inhibition, solid tumor cells; assay type: cell-based, human; details: Homo sapiens, PANC-1, 72 h
Source text: as §4
as §3, with “human solid tumor” for “leukemia”, “DMEM High Glucose” for “a RPMI-1640”, “serum. The plate was placed in a carbon dioxide cell incubator (5% CO2) at 37° C. and incubated for 24 hours.” for “serum.”, “added with” for “adding the”, “concentration” for “concentrations the next day”, “incubated” for “incubating”

[11] = tested on: PC-3 (prostate cancer) cells; experiment: MTT cell growth inhibition, solid tumor cells; assay type: cell-based, human; details: Homo sapiens, 72 h
Source text: as §4
as §3, with “human solid tumor” for “leukemia”, “DMEM High Glucose” for “a RPMI-1640”, “serum. The plate was placed in a carbon dioxide cell incubator (5% CO2) at 37° C. and incubated for 24 hours.” for “serum.”, “added with” for “adding the”, “concentration” for “concentrations the next day”, “incubated” for “incubating”

[12] = tested on: SK-OV-3 (ovarian cancer) cells; experiment: MTT cell growth inhibition, solid tumor cells; assay type: cell-based, human; details: Homo sapiens, SK-OV-3, 72 h
Source text: as §4
as §3, with “human solid tumor” for “leukemia”, “DMEM High Glucose” for “a RPMI-1640”, “serum. The plate was placed in a carbon dioxide cell incubator (5% CO2) at 37° C. and incubated for 24 hours.” for “serum.”, “added with” for “adding the”, “concentration” for “concentrations the next day”, “incubated” for “incubating”

[13] = tested on: A549 (human lung cancer) cells; experiment: MTT cell growth inhibition, solid tumor cells; assay type: cell-based; details: Homo sapiens, A549, 72 h
Source text: as §4
as §3, with “human solid tumor” for “leukemia”, “DMEM High Glucose” for “a RPMI-1640”, “serum. The plate was placed in a carbon dioxide cell incubator (5% CO2) at 37° C. and incubated for 24 hours.” for “serum.”, “added with” for “adding the”, “concentration” for “concentrations the next day”, “incubated” for “incubating”

[14] = tested on: Becap-37 (human breast cancer) cells; experiment: MTT cell growth inhibition, solid tumor cells; assay type: cell-based; details: Homo sapiens, 72 h
Source text: as §4
as §3, with “human solid tumor” for “leukemia”, “DMEM High Glucose” for “a RPMI-1640”, “serum. The plate was placed in a carbon dioxide cell incubator (5% CO2) at 37° C. and incubated for 24 hours.” for “serum.”, “added with” for “adding the”, “concentration” for “concentrations the next day”, “incubated” for “incubating”

[15] = tested on: Hela (human cervical cancer) cells; experiment: MTT cell growth inhibition, solid tumor cells; assay type: cell-based; details: Homo sapiens, HeLa, 72 h
Source text: as §4
as §3, with “human solid tumor” for “leukemia”, “DMEM High Glucose” for “a RPMI-1640”, “serum. The plate was placed in a carbon dioxide cell incubator (5% CO2) at 37° C. and incubated for 24 hours.” for “serum.”, “added with” for “adding the”, “concentration” for “concentrations the next day”, “incubated” for “incubating”

[16] = tested on: Hep G2 (human liver cancer) cells; experiment: MTT cell growth inhibition, solid tumor cells; assay type: cell-based; details: Homo sapiens, HepG2, 72 h
Source text: as §4
as §3, with “human solid tumor” for “leukemia”, “DMEM High Glucose” for “a RPMI-1640”, “serum. The plate was placed in a carbon dioxide cell incubator (5% CO2) at 37° C. and incubated for 24 hours.” for “serum.”, “added with” for “adding the”, “concentration” for “concentrations the next day”, “incubated” for “incubating”

[17] = tested on: Hep-2 (laryngeal carcinoma) cells; experiment: MTT cell growth inhibition, solid tumor cells; assay type: cell-based; details: Homo sapiens, HEp-2, 72 h
Source text: as §4
as §3, with “human solid tumor” for “leukemia”, “DMEM High Glucose” for “a RPMI-1640”, “serum. The plate was placed in a carbon dioxide cell incubator (5% CO2) at 37° C. and incubated for 24 hours.” for “serum.”, “added with” for “adding the”, “concentration” for “concentrations the next day”, “incubated” for “incubating”

[18] = tested on: MG-63 (osteosarcoma) cells; experiment: MTT cell growth inhibition, solid tumor cells; assay type: cell-based; details: Homo sapiens, MG-63, 72 h
Source text: as §4
as §3, with “human solid tumor” for “leukemia”, “DMEM High Glucose” for “a RPMI-1640”, “serum. The plate was placed in a carbon dioxide cell incubator (5% CO2) at 37° C. and incubated for 24 hours.” for “serum.”, “added with” for “adding the”, “concentration” for “concentrations the next day”, “incubated” for “incubating”

[19] = tested on: MGC-803 (human gastric cancer) cells; experiment: MTT cell growth inhibition, solid tumor cells; assay type: cell-based; details: MGC-803, 72 h
Source text: as §4
as §3, with “human solid tumor” for “leukemia”, “DMEM High Glucose” for “a RPMI-1640”, “serum. The plate was placed in a carbon dioxide cell incubator (5% CO2) at 37° C. and incubated for 24 hours.” for “serum.”, “added with” for “adding the”, “concentration” for “concentrations the next day”, “incubated” for “incubating”

[20] = tested on: RKO (human colon adenocarcinoma) cells; experiment: MTT cell growth inhibition, solid tumor cells; assay type: cell-based; details: Homo sapiens, 72 h
Source text: as §4
as §3, with “human solid tumor” for “leukemia”, “DMEM High Glucose” for “a RPMI-1640”, “serum. The plate was placed in a carbon dioxide cell incubator (5% CO2) at 37° C. and incubated for 24 hours.” for “serum.”, “added with” for “adding the”, “concentration” for “concentrations the next day”, “incubated” for “incubating”

[21] = tested on: U87-MG (malignant glioma) cells; experiment: MTT cell growth inhibition, solid tumor cells; assay type: cell-based; details: Homo sapiens, U-87 MG, 72 h
Source text: as §4
as §3, with “human solid tumor” for “leukemia”, “DMEM High Glucose” for “a RPMI-1640”, “serum. The plate was placed in a carbon dioxide cell incubator (5% CO2) at 37° C. and incubated for 24 hours.” for “serum.”, “added with” for “adding the”, “concentration” for “concentrations the next day”, “incubated” for “incubating”

[22] = tested on: human colon cancer cell line LoVo; details: LoVo tumor-bearing nude mice, 60 days; cited from earlier work

C#Cc1cccc(Nc2ncnc3cc(OCCOC)c(OCCOC)cc23)c1 [Erlotinib hydrochloride, reference compound]
Mass of tumor ([1]; Hep G2 transplanted tumor, Day 28, intragastric 3 times a day for 10 days): 839 ± 270.62 mg
Tumor Inhibition rate ([1]; Hep G2 transplanted tumor, Day 28, intragastric 3 times a day for 10 days, control = 0): 34.5%
Body Weight (g) Initial ([1]; Hep G2 tumor nude mice, before administration, intragastric 3 times a day, mean±SD): 21.4 ± 0.26 g
Body Weight (g) Final ([1]; Hep G2 tumor nude mice, final, intragastric 3 times a day for 10 days, mean±SD): 20.4 ± 1.72 g

COc1ccc2cc1Oc1ccc(cc1)C[C@H]1c3cc(c(OC)cc3CCN1C)Oc1c(O)c(OC)cc3c1[C@H](C2)N(C)CC3 [FAN, Fangchinoline, reference compound]
IC50 [2]: 0.36 µg/mL (≈ 0.591 µM)
IC90 [2]: 4.13 µg/mL (≈ 6.78 µM)
IC50 [3]: 0.58 µg/mL (≈ 0.953 µM)
IC90 [3]: 2.59 µg/mL (≈ 4.25 µM)
IC50 [4]: 2.4 µg/mL (≈ 3.94 µM)
IC90 [4]: 6.6 µg/mL (≈ 10.8 µM)
IC50 [5]: 1.73 µg/mL (≈ 2.84 µM)
IC90 [5]: 5.25 µg/mL (≈ 8.62 µM)
IC50 [6]: 1.11 µg/mL (≈ 1.82 µM)
IC90 [6]: 4.11 µg/mL (≈ 6.75 µM)
IC50 [7]: 0.04 µg/mL (≈ 0.0657 µM)
IC90 [7]: 0.5 µg/mL (≈ 0.821 µM)
IC50 [8]: 2.4 µg/mL (≈ 3.94 µM)
IC90 [8]: 5.7 µg/mL (≈ 9.36 µM)
IC50 [9]: 1.94 µg/mL (≈ 3.19 µM)
IC90 [9]: 8.98 µg/mL (≈ 14.8 µM)
IC50 [10]: 3.14 µg/mL (≈ 5.16 µM)
IC90 [10]: 11.6 µg/mL (≈ 19.1 µM)
IC50 [11]: 4.08 µg/mL (≈ 6.7 µM)
IC90 [11]: 7.64 µg/mL (≈ 12.6 µM)
IC50 [12]: 3.61 µg/mL (≈ 5.93 µM)
IC90 [12]: 14.5 µg/mL (≈ 23.8 µM)
IC50 [13]: 3.26 µg/mL (≈ 5.36 µM)
IC90 [13]: 9.81 µg/mL (≈ 16.1 µM)
IC50 [14]: 1.79 µg/mL (≈ 2.94 µM)
IC90 [14]: 6.2 µg/mL (≈ 10.2 µM)
IC50 [15]: 1.96 µg/mL (≈ 3.22 µM)
IC90 [15]: 6.12 µg/mL (≈ 10.1 µM)
IC50 [16]: 1.81 µg/mL (≈ 2.97 µM)
IC90 [16]: 5.23 µg/mL (≈ 8.59 µM)
IC50 [17]: 3.6 µg/mL (≈ 5.91 µM)
IC90 [17]: 10 µg/mL (≈ 16.5 µM)
IC50 [18]: 1.7 µg/mL (≈ 2.79 µM)
IC90 [18]: 3.7 µg/mL (≈ 6.08 µM)
IC50 [19]: 1.08 µg/mL (≈ 1.77 µM)
IC90 [19]: 6.42 µg/mL (≈ 10.5 µM)
IC50 [20]: 0.92 µg/mL (≈ 1.51 µM)
IC90 [20]: 3.11 µg/mL (≈ 5.11 µM)
IC50 [21]: 1.12 µg/mL (≈ 1.84 µM)
IC90 [21]: 3.79 µg/mL (≈ 6.23 µM)
adverse reactions during the administration [22]: do not exhibit adverse reactions
